Data on 3 compounds can be found in ChEMBL document CHEMBL6182862, “Discovery of novel azetidine-based imidazopyridines as selective and orally bioavailable inhibitors of phosphodiesterase 10A for the treatment of pulmonary arterial hypertension” (Eur J Med Chem, 2025).

For one series, the target named is Cytochrome P450 3A4 (Homo sapiens, UniProt P08684). The series can be described thus: Inhibition of CYP3A4 (unknown origin). The format is ADME.
Series [1] can be described thus: in vitro. As to conditions: rat, liver microsomes. For orientation: Liver microsomes are vesicles of endoplasmic reticulum, rich in cytochrome P450 enzymes.
Series [2] is described as follows: in vitro. As to conditions: PAMPA. For orientation: In PAMPA a lipid-coated filter parts donor from acceptor wells.
Series [3] has as its target cAMP and cAMP-inhibited cGMP 3',5'-cyclic phosphodiesterase 10A (Homo sapiens, UniProt Q9Y233).
Another series has as its target Cytochrome P450 2C19 (Homo sapiens, UniProt P33261). Kind of series: Inhibition of CYP2C19 (unknown origin). The format is ADME.
The target of series [4] is Cone cGMP-specific 3',5'-cyclic phosphodiesterase subunit alpha' (Homo sapiens, UniProt P51160). Kind of series: Inhibition of PDE6C (1 to 858 residues) (unknown origin) using 3H-cGMP as substrate incubated for 15 mins by liquid scintillation counter analysis.
The target in series [5] is cGMP-inhibited 3',5'-cyclic phosphodiesterase 3A (Homo sapiens, UniProt Q14432). The series can be described thus: Inhibition of PDE3A (679 to 1087 residues) (unknown origin) using 3H-cAMP as substrate incubated for 15 mins by liquid scintillation counter analysis.
Another series has as its target T1, Cytochrome P450 1A2 (Homo sapiens, UniProt P05177).
T1 sequence (P05177 whole entry): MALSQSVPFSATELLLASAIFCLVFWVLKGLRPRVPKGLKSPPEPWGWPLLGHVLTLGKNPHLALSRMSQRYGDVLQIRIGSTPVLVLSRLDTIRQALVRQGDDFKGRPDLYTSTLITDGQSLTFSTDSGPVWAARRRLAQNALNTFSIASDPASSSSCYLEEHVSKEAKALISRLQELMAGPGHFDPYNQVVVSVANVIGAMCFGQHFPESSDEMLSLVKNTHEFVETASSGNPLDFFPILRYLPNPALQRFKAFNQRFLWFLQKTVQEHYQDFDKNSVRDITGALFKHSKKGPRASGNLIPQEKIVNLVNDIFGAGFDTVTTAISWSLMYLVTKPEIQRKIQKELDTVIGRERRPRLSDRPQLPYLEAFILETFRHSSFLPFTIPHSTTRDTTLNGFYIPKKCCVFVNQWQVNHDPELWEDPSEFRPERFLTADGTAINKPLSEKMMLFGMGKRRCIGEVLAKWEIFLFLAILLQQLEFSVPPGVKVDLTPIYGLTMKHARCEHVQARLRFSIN
The series can be described thus: Inhibition of CYP1A2 (unknown origin). In kind it is ADME.

In a further series the target is Cytochrome P450 2D6 (Homo sapiens, UniProt P10635). The series can be described thus: Inhibition of CYP2D6 (unknown origin). In kind it is ADME.
Series [6] addresses 3',5'-cyclic-AMP phosphodiesterase 4D (Homo sapiens, UniProt Q08499). The series can be described thus: Inhibition of PDE4D (86 to 413 residues) (unknown origin) using 3H-cAMP as substrate incubated for 15 mins by liquid scintillation counter analysis.
The target in series [7] is cGMP-specific 3',5'-cyclic phosphodiesterase (Homo sapiens, UniProt O76074). Kind of series: Inhibition of PDE5A1 (535 to 860 residues) (unknown origin) extracted from Escherichia coli BL21 using 3H-cGMP as substrate incubated for 15 mins by liquid scintillation counter analysis.
The target of series [8] is Dual specificity calcium/calmodulin-dependent 3',5'-cyclic nucleotide phosphodiesterase 1C (Homo sapiens, UniProt Q14123). Kind of series: Inhibition of PDE1C (147 to 531 residues) (unknown origin) using 3H-cGMP/3H-cAMP as substrate incubated for 15 mins by liquid scintillation counter analysis.
The target of series [9] is cGMP-dependent 3',5'-cyclic phosphodiesterase (Homo sapiens, UniProt O00408). The series can be described thus: Inhibition of PDE2A (580 to 919 residues) (unknown origin) using 3H-cGMP as substrate incubated for 15 mins by liquid scintillation counter analysis.
Series [10] addresses High affinity 3',5'-cyclic-AMP phosphodiesterase 7A (Homo sapiens, UniProt Q13946). Kind of series: Inhibition of PDE7A1 (130 to 482 residues) (unknown origin) using 3H-cAMP as substrate incubated for 15 mins by liquid scintillation counter analysis.
A further series addresses Cytochrome P450 2C9 (Homo sapiens, UniProt P11712). Kind of series: Inhibition of CYP2C9 (unknown origin). The format is ADME.
Series [11] has as its target High affinity cGMP-specific 3',5'-cyclic phosphodiesterase 9A (Homo sapiens, UniProt O76083). Kind of series: Inhibition of recombinant PDE9A2 (181 to 506 residues) (unknown origin) extracted from Escherichia coli BL21 using 3H-cGMP as substrate incubated for 15 mins by liquid scintillation counter analysis.
Series [12] deals with Dual 3',5'-cyclic-AMP and -GMP phosphodiesterase 11A (Homo sapiens, UniProt Q9HCR9). Kind of series: Inhibition of PDE11A4 (588 to 911 residues) (unknown origin) using 3H-cGMP/3H-cAMP as substrate incubated for 15 mins by liquid scintillation counter analysis.

By IC50 is commonly meant the concentration needed to halve the response being measured. By half-life is commonly meant the time needed for the level to fall by half in the phase considered. A higher half-life goes with slow decline. Usually Papp stands for a coefficient for how fast a substance crosses the barrier. Low readings indicate slow passage, high ones fast passage.

Chain of Cytochrome P450 3A4 (P08684 whole entry): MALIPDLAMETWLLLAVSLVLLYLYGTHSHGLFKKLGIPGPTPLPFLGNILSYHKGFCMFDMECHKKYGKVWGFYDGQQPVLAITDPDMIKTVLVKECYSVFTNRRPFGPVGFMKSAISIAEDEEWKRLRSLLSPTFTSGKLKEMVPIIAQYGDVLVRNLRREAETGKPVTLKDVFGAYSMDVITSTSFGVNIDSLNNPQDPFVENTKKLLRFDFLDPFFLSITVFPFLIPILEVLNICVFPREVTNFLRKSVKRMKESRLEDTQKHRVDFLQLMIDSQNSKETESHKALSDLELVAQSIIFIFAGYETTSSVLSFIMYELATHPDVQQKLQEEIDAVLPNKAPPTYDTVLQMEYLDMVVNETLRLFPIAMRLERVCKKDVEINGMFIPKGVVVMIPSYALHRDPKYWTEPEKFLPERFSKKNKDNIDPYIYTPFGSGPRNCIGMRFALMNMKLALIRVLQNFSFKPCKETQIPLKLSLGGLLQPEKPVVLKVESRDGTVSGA
Chain of Dual specificity calcium/calmodulin-dependent 3',5'-cyclic nucleotide phosphodiesterase 1C (Q14123 whole entry, the tested form may be a part): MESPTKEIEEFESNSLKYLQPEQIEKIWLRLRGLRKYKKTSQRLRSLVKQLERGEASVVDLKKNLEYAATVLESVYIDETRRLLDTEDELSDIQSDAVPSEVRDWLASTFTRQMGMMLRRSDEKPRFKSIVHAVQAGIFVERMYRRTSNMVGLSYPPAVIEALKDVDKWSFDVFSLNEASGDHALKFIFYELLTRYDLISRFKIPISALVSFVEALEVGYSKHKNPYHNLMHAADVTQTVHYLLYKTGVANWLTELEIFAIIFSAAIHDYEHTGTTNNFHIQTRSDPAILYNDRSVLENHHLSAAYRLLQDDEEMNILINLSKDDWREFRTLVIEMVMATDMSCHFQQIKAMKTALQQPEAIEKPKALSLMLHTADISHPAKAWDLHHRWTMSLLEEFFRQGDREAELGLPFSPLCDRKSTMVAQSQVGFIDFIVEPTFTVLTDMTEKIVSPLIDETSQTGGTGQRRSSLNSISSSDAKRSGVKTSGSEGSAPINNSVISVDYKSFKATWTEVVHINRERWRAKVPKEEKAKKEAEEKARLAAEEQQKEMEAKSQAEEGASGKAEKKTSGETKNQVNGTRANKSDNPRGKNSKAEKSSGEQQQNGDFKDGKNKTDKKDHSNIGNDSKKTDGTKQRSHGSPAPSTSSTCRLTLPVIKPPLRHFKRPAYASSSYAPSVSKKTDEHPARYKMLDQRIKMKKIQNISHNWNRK
Chain of High affinity cGMP-specific 3',5'-cyclic phosphodiesterase 9A (O76083 whole entry, the tested form may be a part): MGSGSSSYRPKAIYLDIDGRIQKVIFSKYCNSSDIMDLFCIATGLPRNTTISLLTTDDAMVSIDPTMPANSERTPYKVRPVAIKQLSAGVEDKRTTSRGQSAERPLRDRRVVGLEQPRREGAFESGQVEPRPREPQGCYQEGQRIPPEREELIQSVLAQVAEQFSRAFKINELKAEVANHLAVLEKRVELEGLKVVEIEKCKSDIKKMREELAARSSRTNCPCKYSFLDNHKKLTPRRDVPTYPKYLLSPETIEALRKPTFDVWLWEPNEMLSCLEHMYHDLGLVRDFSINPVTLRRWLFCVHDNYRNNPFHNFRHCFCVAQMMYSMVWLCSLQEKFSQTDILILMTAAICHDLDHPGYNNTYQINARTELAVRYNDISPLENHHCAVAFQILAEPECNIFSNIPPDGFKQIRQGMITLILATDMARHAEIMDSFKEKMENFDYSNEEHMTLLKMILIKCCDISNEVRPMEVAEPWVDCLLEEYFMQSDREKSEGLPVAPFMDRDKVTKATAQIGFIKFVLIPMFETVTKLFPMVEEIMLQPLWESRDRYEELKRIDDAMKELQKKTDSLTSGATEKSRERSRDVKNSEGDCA
Chain of cAMP and cAMP-inhibited cGMP 3',5'-cyclic phosphodiesterase 10A (Q9Y233 whole entry): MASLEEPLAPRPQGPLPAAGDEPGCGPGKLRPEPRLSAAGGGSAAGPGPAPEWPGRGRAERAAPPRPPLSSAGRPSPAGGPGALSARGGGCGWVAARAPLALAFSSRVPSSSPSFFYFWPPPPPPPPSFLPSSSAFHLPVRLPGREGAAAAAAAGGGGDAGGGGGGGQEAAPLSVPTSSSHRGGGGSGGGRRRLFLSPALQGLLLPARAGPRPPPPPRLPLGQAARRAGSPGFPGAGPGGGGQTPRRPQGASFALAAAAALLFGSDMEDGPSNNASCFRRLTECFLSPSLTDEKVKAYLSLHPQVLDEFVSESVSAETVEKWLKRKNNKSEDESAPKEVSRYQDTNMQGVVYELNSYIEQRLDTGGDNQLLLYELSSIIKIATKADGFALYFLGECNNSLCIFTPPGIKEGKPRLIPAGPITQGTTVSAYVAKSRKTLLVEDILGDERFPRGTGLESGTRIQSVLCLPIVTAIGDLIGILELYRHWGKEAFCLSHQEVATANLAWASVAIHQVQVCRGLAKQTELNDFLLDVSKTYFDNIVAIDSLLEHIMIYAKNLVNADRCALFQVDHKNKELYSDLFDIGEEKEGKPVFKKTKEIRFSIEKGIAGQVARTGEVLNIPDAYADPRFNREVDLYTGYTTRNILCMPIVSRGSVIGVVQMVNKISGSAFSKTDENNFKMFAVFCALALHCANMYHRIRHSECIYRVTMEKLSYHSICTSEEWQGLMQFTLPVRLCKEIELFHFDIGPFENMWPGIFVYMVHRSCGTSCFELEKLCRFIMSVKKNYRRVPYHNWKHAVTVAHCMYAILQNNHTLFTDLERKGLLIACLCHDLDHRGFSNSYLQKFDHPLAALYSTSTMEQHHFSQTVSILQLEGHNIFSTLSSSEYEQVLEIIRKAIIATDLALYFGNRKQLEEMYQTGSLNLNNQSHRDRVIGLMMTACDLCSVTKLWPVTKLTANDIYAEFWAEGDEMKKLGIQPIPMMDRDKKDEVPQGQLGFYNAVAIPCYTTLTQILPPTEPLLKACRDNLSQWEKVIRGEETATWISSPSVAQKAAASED
Chain of Cytochrome P450 2C19 (P33261 whole entry, the tested form may be a part): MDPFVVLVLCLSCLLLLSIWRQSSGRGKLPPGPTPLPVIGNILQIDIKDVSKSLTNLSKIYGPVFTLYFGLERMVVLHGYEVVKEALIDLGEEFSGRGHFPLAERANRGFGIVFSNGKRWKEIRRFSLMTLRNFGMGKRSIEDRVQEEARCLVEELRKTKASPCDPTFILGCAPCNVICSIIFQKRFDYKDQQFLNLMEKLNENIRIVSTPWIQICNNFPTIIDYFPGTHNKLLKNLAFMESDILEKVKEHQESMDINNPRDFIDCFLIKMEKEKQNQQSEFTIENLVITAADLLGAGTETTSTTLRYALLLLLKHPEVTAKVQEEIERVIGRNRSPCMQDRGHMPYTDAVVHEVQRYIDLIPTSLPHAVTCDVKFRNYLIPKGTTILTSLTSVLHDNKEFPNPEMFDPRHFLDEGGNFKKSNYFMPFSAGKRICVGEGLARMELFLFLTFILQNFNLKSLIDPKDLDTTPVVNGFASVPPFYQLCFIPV
Chain of cGMP-dependent 3',5'-cyclic phosphodiesterase (O00408 whole entry, the tested form may be a part): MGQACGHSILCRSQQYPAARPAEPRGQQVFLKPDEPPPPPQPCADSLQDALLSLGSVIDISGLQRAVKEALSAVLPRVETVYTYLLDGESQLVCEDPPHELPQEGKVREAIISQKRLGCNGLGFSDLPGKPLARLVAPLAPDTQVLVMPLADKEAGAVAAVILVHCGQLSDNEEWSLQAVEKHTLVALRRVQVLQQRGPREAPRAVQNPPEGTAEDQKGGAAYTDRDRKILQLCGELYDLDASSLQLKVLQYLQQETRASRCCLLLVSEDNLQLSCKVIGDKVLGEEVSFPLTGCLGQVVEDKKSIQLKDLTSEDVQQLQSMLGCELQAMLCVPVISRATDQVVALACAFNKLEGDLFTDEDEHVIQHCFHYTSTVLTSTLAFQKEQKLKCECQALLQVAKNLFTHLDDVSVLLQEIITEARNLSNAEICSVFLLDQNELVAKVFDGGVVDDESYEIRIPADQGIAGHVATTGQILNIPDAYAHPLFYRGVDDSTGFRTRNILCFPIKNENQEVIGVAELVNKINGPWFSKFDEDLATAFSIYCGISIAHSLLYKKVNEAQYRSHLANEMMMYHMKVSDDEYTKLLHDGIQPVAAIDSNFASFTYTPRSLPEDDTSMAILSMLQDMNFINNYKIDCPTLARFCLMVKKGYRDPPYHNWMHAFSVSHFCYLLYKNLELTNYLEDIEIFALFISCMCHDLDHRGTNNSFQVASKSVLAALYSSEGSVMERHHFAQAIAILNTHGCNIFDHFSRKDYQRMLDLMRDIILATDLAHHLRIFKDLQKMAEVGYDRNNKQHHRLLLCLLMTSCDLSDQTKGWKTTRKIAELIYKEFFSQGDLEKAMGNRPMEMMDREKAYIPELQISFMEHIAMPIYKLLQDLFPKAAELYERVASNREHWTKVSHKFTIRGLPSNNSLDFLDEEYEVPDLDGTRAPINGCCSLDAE
Chain of Cytochrome P450 2D6 (P10635 whole entry, the tested form may be a part): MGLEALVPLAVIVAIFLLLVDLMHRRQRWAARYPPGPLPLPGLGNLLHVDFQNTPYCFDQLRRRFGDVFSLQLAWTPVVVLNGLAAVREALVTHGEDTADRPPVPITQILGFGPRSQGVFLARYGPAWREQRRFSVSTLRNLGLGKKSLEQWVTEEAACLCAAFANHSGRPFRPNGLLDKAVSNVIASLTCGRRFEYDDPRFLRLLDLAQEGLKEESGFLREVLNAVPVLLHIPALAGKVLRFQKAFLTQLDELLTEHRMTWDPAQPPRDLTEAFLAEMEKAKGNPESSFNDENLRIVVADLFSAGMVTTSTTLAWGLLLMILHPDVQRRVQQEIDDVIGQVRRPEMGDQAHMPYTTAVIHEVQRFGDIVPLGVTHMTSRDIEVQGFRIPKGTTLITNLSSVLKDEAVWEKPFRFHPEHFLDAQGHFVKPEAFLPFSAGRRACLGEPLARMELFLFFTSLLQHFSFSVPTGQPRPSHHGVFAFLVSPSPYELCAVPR

For `Cc1ccc2c(c1)nc(/C=C/c1cccc3cccnc13)n2-c1cccc(OCCCN2CCN(C)CC2)c1`, the IC50 against Cytochrome P450 3A4 was determined as 0.21 µM. For the same compound, in “in vitro [1]”, the half-life came to 25 min. The Papp in the series “in vitro [2]” stood at 1.47 ×10⁻⁶ cm/s.

The compound `Cc1ccc2c(c1)nc(C1CN(c3nc(Cl)nc4ccccc34)C1)n2-c1ccccc1` yielded a half-life in “in vitro [1]” of 0.72 min. Besides, half-maximal inhibition in [3] (IC50) was put at 0.0312 µM.

As to `CCOC(=O)c1c(C2CN(c3cc(C(=O)NCCN(CC)CC)c4ccccc4n3)C2)nc2ccccn12`, the half-maximal inhibitory concentration (IC50) against Cytochrome P450 2C19 was > 30 µM; in series [4], > 10 µM; in series [5], > 10 µM; against Cytochrome P450 3A4, > 30 µM; on Cytochrome P450 1A2, > 30 µM; at Cytochrome P450 2D6, 9.7 µM. In addition, the IC50 is 1.28 µM in series [6]; > 10 µM in series [7]; > 10 µM in [8]; > 10 µM in series [9]; > 10 µM in [10]; > 30 µM on Cytochrome P450 2C9. Further, the IC50 in series [11] and in series [12] was > 10 µM each time.
